Where two headings read alike, the source gives them in different places.

The target in one series is T1, full length USP8 (Homo sapiens, UniProt P40818).
T1 sequence (P40818 1-1118): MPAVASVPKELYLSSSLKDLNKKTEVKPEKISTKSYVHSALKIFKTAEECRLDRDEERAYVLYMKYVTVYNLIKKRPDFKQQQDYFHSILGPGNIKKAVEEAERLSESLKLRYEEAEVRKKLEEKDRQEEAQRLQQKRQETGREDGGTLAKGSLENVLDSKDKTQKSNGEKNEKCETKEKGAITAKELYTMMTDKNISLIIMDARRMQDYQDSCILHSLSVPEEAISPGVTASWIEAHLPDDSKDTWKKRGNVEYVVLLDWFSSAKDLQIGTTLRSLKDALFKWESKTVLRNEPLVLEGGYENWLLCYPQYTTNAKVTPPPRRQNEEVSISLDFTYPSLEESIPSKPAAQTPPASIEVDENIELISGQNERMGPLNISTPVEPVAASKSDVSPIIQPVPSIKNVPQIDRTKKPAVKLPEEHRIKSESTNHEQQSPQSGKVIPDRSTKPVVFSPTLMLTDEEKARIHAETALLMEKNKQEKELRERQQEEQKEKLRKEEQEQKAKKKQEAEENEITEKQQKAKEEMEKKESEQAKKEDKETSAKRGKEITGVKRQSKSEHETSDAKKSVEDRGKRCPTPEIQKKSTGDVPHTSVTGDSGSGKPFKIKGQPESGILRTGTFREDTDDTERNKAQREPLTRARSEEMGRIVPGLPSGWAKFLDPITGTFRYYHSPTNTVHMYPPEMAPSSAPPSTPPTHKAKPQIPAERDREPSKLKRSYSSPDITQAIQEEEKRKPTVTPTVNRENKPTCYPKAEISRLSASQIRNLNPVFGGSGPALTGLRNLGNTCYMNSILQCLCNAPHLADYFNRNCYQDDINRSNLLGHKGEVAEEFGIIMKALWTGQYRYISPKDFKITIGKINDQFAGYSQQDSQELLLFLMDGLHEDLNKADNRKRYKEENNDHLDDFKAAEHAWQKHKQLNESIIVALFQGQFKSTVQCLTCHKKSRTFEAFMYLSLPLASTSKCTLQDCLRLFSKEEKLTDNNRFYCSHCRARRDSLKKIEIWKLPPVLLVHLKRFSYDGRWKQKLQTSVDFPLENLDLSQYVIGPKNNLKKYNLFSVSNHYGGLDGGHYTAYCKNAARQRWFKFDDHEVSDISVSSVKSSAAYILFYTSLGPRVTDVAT
Briefly: Ub-Rho hydrolysis, dose response. It counts as biochemical.

The nature of series [1]: in vitro. Conditions: mouse, att-20 cells.
The nature of series [2]: in vitro. Details: species or system AtT-20. Conditions: mouse, att-20 cells, AtT-20 cell viability at 25µM, % of control.
Series [3] can be described thus: in vitro. Conditions: mouse, att-20 cells. This is another data set of the same source.
The subject of another series is AtT-20. Briefly: in vitro. Conditions: Ambinter Amb2704313 batch; 24 h.

As for `O=C(Nc1ccccc1)c1ccccc1O` [salicylanilide backbone], the IC50 against full length USP8 was more than 50 µM. `O=C(Nc1ccc([N+](=O)[O-])cc1Cl)c1cc(Cl)ccc1O` [Niclosamide]: the viability at 24 h, 27 µM in the series “in vitro [1]” is 50%. Take `Cc1ccc(NC(=O)c2cc(I)cc(I)c2O)cc1` [ZINC4014108]: half-maximal inhibition at full length USP8 (0.1 µM Ub-Rho) (IC50) required 14.6 µM. In addition, the viability at 24 h, 25 µM in “in vitro [2]” was found to be 93.5%. With `O=C(Nc1cc(Cl)cc(Cl)c1)c1cc(I)cc(I)c1O` [ZINC4014253], in the series “in vitro [2]”, the viability at 24 h, 25 µM came out at 68%. For `O=C(Nc1ccc(Cl)cc1C(=O)c1ccccc1F)c1ccc(=O)[nH]c1` [ZINC9579366], in “in vitro [3]”, the viability at 24 h, 25 µM was 103%. `Cc1ccc(NC(=O)Cn2ccccc2=O)c(OCc2ccccc2)c1` [ZINC55784788]: in the series “in vitro [3]”, the viability at 24 h, 25 µM turned out to be 96%. With `O=C(Nc1ccc(Oc2ccc(Cl)cc2)c(Cl)c1)c1cc(I)cc(I)c1O` [Rafoxanide], the viability at 24 h, 25 µM in “in vitro [2]” is 56.2%. Moreover, the “AtT-20 cell viability at 25µM, % of control” value with AtT-20 turned out to be 39.3%. As for `Cc1ccc(C(=O)c2cc(NC(=O)c3cc(I)cc(I)c3O)ccc2Cl)cc1` [ZINC72119086], in the series “in vitro [2]”, the viability at 24 h, 25 µM was 109%.

For `O=C(Nc1ccc(O)cc1)c1cc(I)ccc1O` [ZINC194061705], the viability at 24 h, 25 µM in the series “in vitro [3]” was 107%.

Regarding `O=C(Nc1cc(Cl)cc(Cl)c1O)c1c(O)c(Cl)cc(Cl)c1Cl` [Oxyclozanide], the viability at 24 h, 25 µM in “in vitro [1]” turned out to be 98.1%. On full length USP8 (0.1 µM Ub-Rho), `O=C(Nc1ccc(Cl)cc1)c1cc(I)cc(I)c1O` [ZINC4014104] gave an IC50 of 11.9 µM. Further, the viability at 24 h, 25 µM in the series “in vitro [2]” came to 58.8%. As for `O=C(Nc1cc(Cl)ccc1Cl)c1cc(I)cc(I)c1O` [ZINC4014105], the viability at 24 h, 25 µM in the series “in vitro [2]” is 95.7%. `O=C(CSc1ccccc1F)Nc1cccc(OCc2ccccn2)c1` [ZINC32922917]: the viability at 24 h, 25 µM in “in vitro [2]” came to 101%. `O=C(Nc1ccc(Cl)cc1Cl)c1cc(I)cc(I)c1O` [ZINC4181894]: the viability at 24 h, 25 µM in the series “in vitro [2]” is 89.6%.

Regarding `O=C(NCc1cccc(OCc2ccccn2)c1)c1csc(Br)c1` [ZINC40111866], the viability at 24 h, 25 µM in the series “in vitro [2]” is 98.9%. On to `CC(=O)Oc1c(I)cc(I)cc1C(=O)Nc1ccc(Cl)cc1` [Clioxanide], for which the viability at 24 h, 25 µM in the series “in vitro [1]” was found to be 94.2%.

These data come from doi:10.1101/2025.02.26.640120v1 (biorxiv, 2025).
